Read-outs that look alike come from different tables or passages of the source.

In general, Emax refers to the size of the effect at its maximum, as opposed to the concentration needed. Broadly, the melting point is the temperature of the solid-liquid transition.

The test system of data set [1] is bladder contractions in male CD rats. As to the kind of experiment: In vivo bladder efficacy protocol (isovolumetric contractions model). On the set-up: species or system rat. Conditions: iv, cumulative doses; dose reducing area under the curve of bladder contractions by 30% relative to control; urethane-anesthetized rats. The source says: The utility of compounds of the present invention for the treatment of urinary incontinence, bladder overactivity, and bladder instability is illustrated by the ability of compounds of the present invention to inhibit bladder contractions in vivo. The following method is illustrative of the in vivo bladder efficacy of compounds of the present invention.
Male CD rats (400-450 g) were anesthetized with urethane (0.6 g/kg ip+0.6 g/kg sc). The left femoral vein was cannulated with polyethylene (PE-50) tubing for the administration of test compound. A third polyethylene catheter (PE-60) was inserted 3-4 mm into the apex of the bladder dome and secured using a 5-0 silk purse string suture. The bladder was emptied via this catheter and additionally by applying slight manual pressure on the lower abdomen. The urinary catheter was connected using a Y-tube connector to both a pressure transducer and a syringe pump. The urethra was then ligated using 4-0 silk suture and the bladder was slowly filled using a constant infusion of room temperature saline at the rate of 0.1 mL/min until spontaneous rhythmic contractions were evident (1.0-1.3 mL). After the contractions stabilized to a consistent pattern, bladder pressure was monitored for 20 minutes before and after a dose of the vehicle (equal parts of β-cyclodextrin stock solution (100 g β-cyclodextrin dissolved in 200 mL) and sterile water) alone. Then three doses of a test compound were administered cumulatively intravenous (iv) at 20 minute intervals. Each dosing solution (1 mL/kg) was warmed to body temperature before dosing and was infused over 3 minutes to minimize dosing artifacts on the bladder pressure trace. Data were averaged over the last 10 minutes of each period and presented as percent change from control. Area under the curve of the bladder contractions was determined from the respective waveforms using a Modular Instruments, Inc. computerized data acquisition system and averaged over the last ten minutes of each twenty minute period. The doses required to reduce the area under the curve of the bladder contractions by 30% (AUC ED30%) relative to control were estimated using a customized Excel spreadsheet.

The test system of data set [2] is primary cultured guinea-pig urinary bladder (GPB) cells. Nature of the data set: Membrane hyperpolarization (MHP) assay, DiBAC(4)3 / FLIPR. In kind it is cell-based. Conditions: for EC50: concentration that elicits 50% of the maximal response for the test sample. An outline of the steps: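 Primary smooth-muscle cells from male guinea-pig bladder, grown to confluence, loaded 30 min at 37° C with 5 μM DiBAC(4)3 in HEPES buffer pH 7.4. Fluorescence drop on FLIPR followed 25 min after compound; steady-state hyperpolarization normalized to 10 μM P1075 (100%), EC50 from four-parameter fit of five concentrations.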

In data set [3] the test system is tissue strips obtained from Landrace pig bladders. As to the kind of experiment: Functional potassium channel opening activity in isolated bladder strips (field-stimulated twitch). Conditions: for Index: ED50 for P1075 divided by ED50 for the test agonist in a given tissue, averaged; for EC50: amount of agent necessary to cause 50% of the agent's maximal response, read-out: ED50 (the source's name); for Efficacy (% P1075) / Emax: maximal efficacy relative to P1075, field stimulation 0.05 Hz, 0.5 ms, 20 volts. The gist of the method:
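Mucosa-free female Landrace pig bladder strips in Krebs Ringer bicarbonate (pH 7.4, 37° C., 0.004 mM propranolol), 1.0 g preload, field-stimulated at 0.05 Hz, 0.5 ms, 20 V for twitch. Cumulative concentration-response curves; maximal efficacy as % of P1075, ED50 fitted, potency index = P1075 ED50/test ED50 per tissue, averaged.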

[4] abbreviates: Cavia porcellus, maximal steady-state hyperpolarization, normalized to response with 10 μM P1075 (100%).

For `C=CCC(C)(C)C(NC(=O)c1ccc(Cl)cc1)NC(=NC#N)Nc1cccnc1` (single isomer, unassigned; (+)) [Example 91, (+) 4-chloro-N-(1-{[(cyanoimino)(3-pyridinylamino)methyl]amino}-2,2-dimethyl-4-pentenyl)benzamide], the “AUC EC30” value in data set [1] was greater than 10 µmol/kg. Further, the EC50 in data set [2] worked out at 2900 nM. The “Maximal Response (% P1075)” value in data set [2] (maximal steady-state hyperpolarization, normalized to response with 10 μM P1075 (100%)) stood at 68 % P1075. Besides, in data set [3], the Index stood at 0.360, the EC50 was determined as 830 nM and the “Efficacy (% P1075)” value turned out to be 46 % P1075.
As for `CC(C)(C)CC(NC(=O)c1ccc(Cl)cc1)NC(=N[N+](=O)[O-])Nc1cccnc1` (single isomer, unassigned; (-)) [Example 126, (−) 4-chloro-N-(1-{[(nitroimino)(3-pyridinylamino)methyl]amino}-3,3-dimethylbutyl)benzamide], in data set [1], the “AUC EC30” value was 13.5 µmol/kg. In data set [3], the Index worked out at 0.096, the EC50 turned out to be 3800 nM and the “Efficacy (% P1075)” value was determined as 94 % P1075.
As to `Cc1ccc(C(=O)NC(NC(=NC#N)Nc2ccccc2)C(Cl)(Cl)Cl)cc1` (stereo not drawn) [Example 46, N-(1-{[anilino(cyanoimino)methyl]amino}-2,2,2-trichloroethyl)-4-methylbenzamide], the “AUC EC30” value in data set [1] turned out to be 0.70 µmol/kg. Besides, the EC50 is 40 nM in data set [2] (Cavia porcellus) and 5000 nM in data set [3] (Sus scrofa). For the same compound, the Emax in data set [2] (setting [4]) turned out to be 105%; in data set [3] (Sus scrofa), 84%. This compound returned an Index in data set [3] of 0.015.
Turning to `Cc1ccc(C(=O)NC(NC(=NC#N)Nc2cccnc2)C(C)(C)C)cc1` (stereo not drawn) [Example 51, N-(1-{[(cyanoimino)(3-pyridinylamino)methyl]amino}-2,2-dimethylpropyl)-4-methylbenzamide], the “AUC EC30” value in data set [1] stood at 0.28 µmol/kg. The compound further came in with a maximal effect (Emax) in data set [2] (setting [4]) of 88%. The compound also returned an EC50 in data set [2] of 570 nM. In addition, in data set [3], the Index was determined as 0.006 and the “Efficacy (% P1075)” value is recorded as 100 % P1075. For the same compound, the EC50 in data set [3] (Sus scrofa) was determined as 17000 nM.
Take `CC(C)(C)C(NC(=O)c1ccc(Cl)cc1)NC(=NC#N)Nc1cccnc1` (stereo not drawn) [Example 52, 4-chloro-N-(1-{[(cyanoimino)(3-pyridinylamino)methyl]amino}-2,2-dimethylpropyl)benzamide]: the “AUC EC30” value in data set [1] was found to be 0.78 µmol/kg. The EC50 in data set [2] (Cavia porcellus) amounted to 270 nM; in data set [3] (Sus scrofa) it was 19000 nM. The Emax in data set [2] (setting [4]) and in data set [3] (Sus scrofa) was 72% in each case. This compound also had an Index in data set [3] of 0.012.
On to `N#CN=C(Nc1cccnc1)NC(NC(=O)c1ccc(Cl)cc1)C12CC3CC(CC(C3)C1)C2` (stereo not drawn) [Example 100, N-(1-adamantyl{[(cyanoimino)(3-pyridinylamino)methyl]amino}methyl)-4-chlorobenzamide], for which the melting point is 209 to 210 °C. In addition, in data set [2] (Cavia porcellus), the EC50 was 180 nM. This compound registered an Emax in data set [2] (setting [4]) of 87%.
In the same order, the values of `CCC1(C(NC(=O)c2ccc(Cl)cc2)NC(=NC#N)Nc2cccnc2)COCOC1` (stereo not drawn) [Example 101, 4-chloro-N-[{[(cyanoimino)(3-pyridinylamino)methyl]amino}(5-ethyl-1,3-dioxan-5-yl)methyl]benzamide] are 194 to 195 °C, 6100 nM and 59%.
Take `CC(C)(Cc1ccccc1)C(NC(=O)c1ccc(Cl)cc1)NC(=NC#N)Nc1cccnc1` (stereo not drawn) [Example 102, 4-chloro-N-(1-{[(cyanoimino)(3-pyridinylamino)methyl]amino}-2,2-dimethyl-3-phenylpropyl)benzamide]: the melting point was in the range of 182 to 183 °C. The EC50 in data set [2] (Cavia porcellus) is greater than 10000 nM. In data set [2] (setting [4]), this compound returned an Emax of less than 20%.
Compound `CC(C)(C)C(NC(=O)c1ccc(Br)cc1)NC(=NC#N)Nc1cccnc1` (stereo not drawn) [Example 105, 4-bromo-N-(1-{[(cyanoimino)(3-pyridinylamino)methyl]amino}-2,2-dimethylpropyl)benzamide] came in with a melting point of 180 to 181 °C. Also, in data set [2] (Cavia porcellus), the EC50 was determined as 53 nM. For the same compound, the Emax in data set [2] (setting [4]) was determined as 106%.
Regarding `C=CCC(C)(C)C(NC(=O)c1ccc(Cl)cc1)NC(=N[N+](=O)[O-])Nc1cccnc1` (stereo not drawn) [Example 127, 4-chloro-N-(1-{[(nitroimino)(3-pyridinylamino)methyl]amino}-2,2-dimethyl-4-pentenyl)benzamide], the melting point was in the range of 200 to 203 °C. The EC50 in data set [2] (Cavia porcellus) came out at 1200 nM. Moreover, the Emax in data set [2] (setting [4]) came to 65%.
In the same order, the values of `CC(C)(Cc1ccccc1)C(NC(=O)c1ccc(Cl)cc1)NC(=N[N+](=O)[O-])Nc1cccnc1` (stereo not drawn) [Example 128, 4-chloro-N-(1-{[(nitroimino)(3-pyridinylamino)methyl]amino}-2,2-dimethyl-3-phenylpropyl)benzamide] are 205 to 207 °C, 470 nM and 116%.
As to `CC1=C(CC(NC(=O)c2ccc(Cl)cc2)NC(=N[N+](=O)[O-])Nc2cccnc2)C(C)(C)CCC1` (stereo not drawn) [Example 129, 4-chloro-N-[1-{[(nitroimino)(3-pyridinylamino)methyl]amino}-2-(2,6,6-trimethyl-1-cyclohexen-1-yl)ethyl]benzamide], the melting point lay in the range of 217 to 218 °C. In data set [2] (Cavia porcellus), the EC50 was found to be 120 nM. In data set [2] (setting [4]), the Emax was determined as 132%.
The like results for `CC(C)(C1CCCCC1)C(NC(=O)c1ccc(Cl)cc1)NC(=N[N+](=O)[O-])Nc1cccnc1` (stereo not drawn) [Example 130, 4-chloro-N-(1-{[(nitroimino)(3-pyridinylamino)methyl]amino}-2-cyclohexyl-2-methylpropyl)benzamide] were, in that order, 201 to 203 °C, 530 nM and 147%.
In the same order, the values of `C=CCOCC(CC)(COCC=C)C(NC(=O)c1ccc(Cl)cc1)NC(=N[N+](=O)[O-])Nc1cccnc1` (stereo not drawn) [Example 131, N-(2,2-bis[(allyloxy)methyl]-1-{[(nitroimino)(3-pyridinylamino)methyl]amino}butyl)-4-chlorobenzamide] are 175 to 180 °C, 2000 nM and 53%.
`CCC(CC)(CCC#N)C(NC(=O)c1ccc(Cl)cc1)NC(=N[N+](=O)[O-])Nc1cccnc1` (stereo not drawn) [Example 132, 4-chloro-N-(4-cyano-1-{[(nitroimino)(3-pyridinylamino)methyl]amino}-2,2-diethylbutyl)benzamide]: the melting point was in the range of 100 to 110 °C. The same compound returned an EC50 in data set [2] (Cavia porcellus) of 130 nM. In data set [2] (setting [4]), the Emax was determined as 124%.
`O=C(NC(CC12CC3CC(CC(C3)C1)C2)NC(=N[N+](=O)[O-])Nc1cccnc1)c1ccc(Cl)cc1` (stereo not drawn) [Example 134, N-(2-(1-adamantyl)-1-{[(nitroimino)(3-pyridinylamino)methyl]amino}ethyl)-4-chlorobenzamide] showed a melting point of 219 to 220 °C. The compound further returned an EC50 in data set [2] (Cavia porcellus) of 2000 nM. The same compound came in with an Emax in data set [2] (setting [4]) of 86%.
In the case of `CC(Cl)(Cl)C(NC(=O)c1cccc(Cl)c1)NC(=NC#N)Nc1ccc(Cl)nc1` (stereo not drawn) [Example 153, 3-chloro-N-(2,2-dichloro-1-{[[(6-chloro-3-pyridinyl)amino](cyanoimino)methyl]amino}propyl)benzamide], in data set [1], the “AUC EC30” value was found to be 1 µmol/kg. For the same compound, the Index in data set [3] came to 0.014. Besides, in data set [3] (Sus scrofa), the EC50 came out at 4900 nM and the Emax was determined as 93%.
Consider `CC(Cl)(Cl)C(NC(=O)c1ccc(Cl)cc1)NC(=NC#N)Nc1ccc(Cl)nc1` (stereo not drawn) [Example 160, 4-chloro-N-(2,2-dichloro-1-{[[(6-chloro-3-pyridinyl)amino](cyanoimino)methyl]amino}propyl)benzamide], for which, in data set [1], the “AUC EC30” value was found to be 1.7 µmol/kg. In addition, in data set [3], the Index was 0.221 and the EC50 was found to be 690 nM. For the same compound, the Emax in data set [3] (Sus scrofa) came to 98%.

Source of the values: patent US20020028836A1, “Potassium channel openers” (priority 2000, published 2002).
